Experimental data: patent publication EP1509285B1, “SYNERGISTIC COMPOSITION OF TRANS-TETRACOS-15-ENOIC ACID AND APOCYNIN AND USE THEREOF” (COUNCIL OF SCIENTIFIC AND INDUSTRIAL RESEARCH, priority 2002, dated 2003)

Tests used:
[1] = tested on: D-Galactosamine (GAIN) induced hepatic injury; assay: Hepatoprotective activity (in vivo) against D-Galactosamine induced hepatic injury; details: rats; for Hepatic parameters Glutathione / Hepatic parameters Lipid peroxidation / Serum parameters ALP / Serum parameters Bilirubin / Serum parameters Triglycerides / Serum parameters GOT / Serum parameters GPT: 50 mg kg-1 p.o. at 48 h, 24h, 2 h before and 6 h after GalN 300 mg kg-1 s.c., mean ± S.E.; for Serum parameters GOT / Serum parameters GPT: unit is µmole pyruvate/min/L; for hepatoprotective activity percent, ALP / hepatoprotective activity percent, Bilirubin / hepatoprotective activity percent, GOT / hepatoprotective activity percent, GPT / hepatoprotective activity percent, Glutathione / hepatoprotective activity percent, Lipid peroxidation / hepatoprotective activity percent, Triglycerides: GalN, 50 mg kg-1 p.o., H = [1-(TC-V/VC-V)] × 100
Protocol: (§1) i. Animals: The pharmacological studies are conducted on Wistar albino rats (150-180g) and Swiss albino mice (25-30g) of either sex, colony - bred in the Institute's animal house. After procurement, all the animals are divided into different groups and are left for one week for acclimatization to experimentation room and are maintained on standard conditions (23±2°C, 60-70 % relative humidity and 12 h photo period). The animals are fed with standard rodents pellet diet and water ad libitum. There are six animals in each group except for general behaviour and acute toxicity studies where ten animals are used in each group.
D-Galactosamine: It is one of the toxins that induce hepatic inflammatory conditions in the rat liver that clinically resembles to viral hepatitis. The mechanism of GalN induced liver injury has been extensively examined and this model is now accepted as one of the authentic systems of liver damage (Bauer et. al., 1974, Al-Tuwaijiri et. al., 1981). (Table1)
Hepatic damage is produced by injecting GalN (300 mg.kg^-1) subcutaneously in normal saline. The control animals received the equal volume of vehicle.
(§2) Freshly prepared suspension (1%, w/v) in 0.2% gum acacia in normal saline is used for all the experiments except for toxicity studies where (10 %, w/v) suspension is used. Silymarin suspension (1%, w/v) in 0.2 % gum acacia is used as a reference standard (positive control).
Blood is collected from orbital sinus in all the animals 18 h after last treatment and serum separated for different estimations. All the animals are then killed by decapitation, their livers are quickly excised, cleaned of adhering tissue, weighed and homogenised in phosphate buffer saline for the analysis of hepatic parameters. A portion of the liver is processed for histopathological studies (Table 1)
(§3) • GPT and GOT: Pyruvate formed by transamination reaction is determined spectrophotometrically after reaction with 2,4-dinitrophenylhydrazine (Reitman and Frankel, 1957). • ALP : p-nitrophenol formed in alkaline medium is measured spectrophotometrically using p-nitrophenyl phosphate as substrate (Walter and Schutt, 1974). • Bilirubin : Total bilirubin is measured by diazotization reaction with NaNO2 (Malloy and Evelyn, 1937) • Triglycerides : Triglycerides from serum are extracted with isopropanol and sopanified with KOH. The liberated glycerol is converted to formaldehyde by periodate and determined after reaction with acetyl acetone. Triolein is used as standard (Neri and Firings, 1973). • Glutathione: It is determined after deproteination by reaction with DTNB (Ellman 1959 as modified by David 1987). • Lipid peroxidation: Thiobarbituric acid reacting substances are determined spectrophotometrically at 535 nm. Buege. and Aust. (1978).
(§4) Hepatoprotective activity (H) is calculated by the following equation: H = [1-(TC-V/VC-V)] × 100 [formula]
(§5) Where TC, VC, and V are drug + toxin, vehicle + toxin and vehicle treated groups of animals respectively.

[2] = tested on: CCl4 induced hepatic injury; assay: Hepatoprotective activity (in vivo) against CCl4 induced hepatic injury; details: rats; for Hepatic parameters Glutathione / Hepatic parameters Lipid peroxidation / Serum parameters ALP / Serum parameters Bilirubin / Serum parameters Triglycerides / Serum parameters GOT / Serum parameters GPT: 50 mg kg-1 p.o. at 48h, 24h, 2h before and 6h after CCl4 0.5 ml kg-1 p.o.; for Serum parameters GOT / Serum parameters GPT: unit is µmole pyruvate/min/L; for hepatoprotective activity percent, ALP / hepatoprotective activity percent, Bilirubin / hepatoprotective activity percent, GOT / hepatoprotective activity percent, GPT / hepatoprotective activity percent, Glutathione / hepatoprotective activity percent, Lipid peroxidation / hepatoprotective activity percent, Triglycerides: CCl4, 50 mg kg-1 p.o., H = [1-(TC-V/VC-V)] × 100
Protocol: as §1
Carbon tetrachloride (CCl4): CCl4 is one of the most powerful hepatotoxins (in term of severity of injury). It causes toxic necrosis, which leads to biochemical changes having clinical features similar to those of acute viral hepatitis (Vogel, 1977, Bramanti et. al., 1978, Kumar et. al., 1992). Liver injury is produced by administration of CCl4 mixed with liquid paraffin. Animals are given single dose of CCl4 (50 µl.kg^-1, p.o.) in acute single treatment and (0.5 ml.kg^-1, p.o.) in case of multitreatment with drug. It is administered orally (p.o) by gastric intubation. The control animals received the equal volume of liquid paraffin. (Table 3, 4).
as §2
Treatment of test material before and after hepatotoxin: The doses of TCA and APO individually and in mixture, silymarin (50 mg/kg, p.o. each) and vehicle (normal saline) are fed to different groups of rats at 48 hours, 24 hours and 2 hours before and 6 hours after hepatotoxin (CCl4 , 0.5 ml.kg^-1, p.o.) intoxication. Blood is collected from orbital sinus in all the animals 18 hours after last treatment and serum separated for different estimations. All the animals are then killed by decapitation, their livers are quickly excised, cleaned of adhering tissue, weighed and homogenised in phosphate buffer saline for the analysis of hepatic parameters (Agarwal and Mehendale, 1983, Klingensmith and Mehendale, 1982, Zimmerman, 1973, Edmondson and Peter, 1985, Mitchell, et al, 1973). (Table 3-4).
as §3, §4, §5

[3] = Table 4 (own control groups), mean ± S. E.

| Structure (SMILES) | Hepatic parameters Glutathione [1] [µ mole GSH/g liver] | Hepatic parameters Lipid peroxidation [1] [n moles MDA/g liver] | Serum parameters ALP [1] | Serum parameters Bilirubin [1] [mg %] | Serum parameters Triglycerides [1] [mg %] | Serum parameters GOT [1] [Units] | Serum parameters GPT [1] [Units] | hepatoprotective activity percent, ALP [1] | hepatoprotective activity percent, Bilirubin [1] | hepatoprotective activity percent, GOT [1] | hepatoprotective activity percent, GPT [1] | hepatoprotective activity percent, Glutathione [1] | hepatoprotective activity percent, Lipid peroxidation [1] | hepatoprotective activity percent, Triglycerides [1] | also measured |
| --- | --- | --- | --- | --- | --- | --- | --- | --- | --- | --- | --- | --- | --- | --- | --- |
| COc1cc(C(C)=O)ccc1O [APO, Apocynin] | 4.52±0.49 | 48.71±3.69 | 37.73±1.64 µ mole of p-nitrophenol formed/min/ L | 0.41±0.02 | 31.85±3.74 | 509.33±41.63 | 859.18±50.51 | (68.76) percent | (41.66) percent | (38.42) percent | (46.59) percent | (21.51) percent | (39.93) percent | (42.95) percent | Hepatic parameters Glutathione [2, 3]: 4.44±0.26 µ mole GSH/g liver; Hepatic parameters Lipid peroxidation [2, 3]: 48.12±2.28 n moles MDA/g liver; Serum parameters ALP [2, 3]: 26.66±2.06 µ mole ofp-nitrophenol formed/min/ L; Serum parameters Bilirubin [2, 3]: 0.37±0.01 mg %; Serum parameters Triglycerides [2, 3]: 28.00±2.39 mg %; Serum parameters GOT [2, 3]: 489.39±66.82 Units; Serum parameters GPT [2, 3]: 838.58±69.65 Units; hepatoprotective activity percent, ALP ([2]; Table 4): (86.05) percent; hepatoprotective activity percent, Bilirubin ([2]; Table 4): (48.94) percent; hepatoprotective activity percent, GOT ([2]; Table 4): (39.31) percent; hepatoprotective activity percent, GPT ([2]; Table 4): (47.86) percent; hepatoprotective activity percent, Glutathione ([2]; Table 4): (40.73) percent; hepatoprotective activity percent, Lipid peroxidation ([2]; Table 4): (42.77) percent; hepatoprotective activity percent, Triglycerides ([2]; Table 4): (36.68) percent |
| CCCCCCCC/C=C/CCCCCCCCCCCCCC(=O)O [TCA, trans-tetracos-15-enoic acid] | 5.39±0.43 | 42.12±3.93 | 44.16±2.87 µ mole of p-nitrophenol formed/min/ L | 0.29±0.03 | 29.78±2.82 | 421.64±30.36 | 758.59±40.86 | (59.67) percent | (66.66) percent | (52.03) percent | (53.74) percent | (38.84) percent | (59.35) percent | (50.99) percent | Hepatic parameters Glutathione ([2]; Table 3, mean ± S.E.): 5.35±0.51 µ mole GSH/g liver; Hepatic parameters Lipid peroxidation ([2]; Table 3, mean ± S.E.): 46.88±2.58 n moles MDA/g liver; Serum parameters ALP ([2]; Table 3, mean ± S.E.): 28.72±3.90 µ mole of p-nitrophenol formed/min/ L; Serum parameters Bilirubin ([2]; Table 3, mean ± S.E.): 0.35±0.02 mg %; Serum parameters Triglycerides ([2]; Table 3, mean ± S.E.): 23.53±1.77 mg %; Serum parameters GOT ([2]; Table 3, mean ± S.E.): 409.73±46.57 Units; Serum parameters GPT ([2]; Table 3, mean ± S.E.): 324.84±42.09 Units; hepatoprotective activity percent, ALP ([2]; Table 3): (81.78) percent; hepatoprotective activity percent, Bilirubin ([2]; Table 3): (55.55) percent; hepatoprotective activity percent, GOT ([2]; Table 3): (62.16) percent; hepatoprotective activity percent, GPT ([2]; Table 3): (74.63) percent; hepatoprotective activity percent, Glutathione ([2]; Table 3): (52.92) percent; hepatoprotective activity percent, Lipid peroxidation ([2]; Table 3): (64.33) percent; hepatoprotective activity percent, Triglycerides ([2]; Table 3): (66.05) percent |
